The source of these data is patent US20050238580A1 (priority 2002, published 2005).

One series deals with T1, intestinal lactase (Rattus norvegicus, UniProt Q02401).
T1 construct: hydrolysis of the 4-galactosyl-xylose administered is detected by the action of intestinal lactase; from tissue; host or cells: small-intestinal mucous membrane of living unweaned rats (in vivo); activity also measured post mortem in mucosa homogenate
T1 sequence (Q02401 868-1928): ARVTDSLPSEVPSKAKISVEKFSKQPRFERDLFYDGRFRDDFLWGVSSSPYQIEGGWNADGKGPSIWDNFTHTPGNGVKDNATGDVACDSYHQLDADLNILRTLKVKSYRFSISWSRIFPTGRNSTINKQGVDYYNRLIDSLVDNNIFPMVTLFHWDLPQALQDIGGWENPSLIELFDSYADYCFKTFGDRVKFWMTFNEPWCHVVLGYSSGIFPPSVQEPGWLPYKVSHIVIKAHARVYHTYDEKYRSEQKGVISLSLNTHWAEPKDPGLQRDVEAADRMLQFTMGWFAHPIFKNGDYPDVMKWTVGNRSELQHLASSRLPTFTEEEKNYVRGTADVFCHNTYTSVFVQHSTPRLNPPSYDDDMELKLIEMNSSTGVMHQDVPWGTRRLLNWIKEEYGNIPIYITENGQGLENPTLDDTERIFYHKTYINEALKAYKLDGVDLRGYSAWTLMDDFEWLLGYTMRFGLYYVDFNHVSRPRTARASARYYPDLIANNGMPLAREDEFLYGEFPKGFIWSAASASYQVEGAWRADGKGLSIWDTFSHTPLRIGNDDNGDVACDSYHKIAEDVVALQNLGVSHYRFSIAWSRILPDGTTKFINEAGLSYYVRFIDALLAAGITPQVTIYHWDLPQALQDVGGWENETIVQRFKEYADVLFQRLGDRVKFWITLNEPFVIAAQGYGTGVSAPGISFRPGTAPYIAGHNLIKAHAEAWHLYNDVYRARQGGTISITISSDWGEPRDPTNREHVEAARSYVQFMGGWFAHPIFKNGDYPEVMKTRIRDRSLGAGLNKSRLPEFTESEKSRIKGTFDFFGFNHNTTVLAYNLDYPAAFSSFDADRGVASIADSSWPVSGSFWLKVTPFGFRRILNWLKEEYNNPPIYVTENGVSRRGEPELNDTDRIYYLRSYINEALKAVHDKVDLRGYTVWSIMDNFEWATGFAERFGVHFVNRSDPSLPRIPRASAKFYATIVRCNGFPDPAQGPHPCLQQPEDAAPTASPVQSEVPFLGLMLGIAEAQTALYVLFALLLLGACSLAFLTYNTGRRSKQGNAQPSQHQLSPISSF
Briefly: Excretion of xylose in urine after oral 4-galactosyl-xylose versus intestinal lactase activity in unweaned rats. The series is classed as in vivo. The text has this: Correlation between the excretion of xylose in urine and the presence of xylose in blood after oral administration of 4-galactosyl-xylose with intestinal lactase activity. This has been shown in unweaned rats comparing during the growth of these animals, the excretion of xylose in urine after orally administering to them 4-galactosyl-xylose, with lactase activity evaluated postmortem in the intestinal mucous membrane, which is known to physiologically reduce during growth. For this purpose, a group comprised of 20 12-day old unweaned rats belonging to two litters fasted for 6 hours by being separated from the mother. […] Immediately after the urine has been collected, four of the animals were sacrificed and the lactase activity in the intestinal mucous membrane was directly evaluated. […] The lactase activity in the homogenized product was measured spectrophotometrically. […] Therein one can see: 1) That the presence of xylose in urine coming from the hydrolysis of the 4-galactosyl-xylose administered is detected by the action of intestinal lactase; 2) That the rate of excretion of xylose in urine caused by oral administration of 4-galactosyl-xylose during the growth of the animals, runs parallel to the known physiological modification of intestinal lactase activity that reduces during growth. […]

The nature of series [1]: Gastrointestinal tolerability of the oral intake of 4-galactosyl-xylose in adult human volunteers. It counts as in vivo.

Regarding `OCC1O[C@@H](O[C@@H]2COC(O)C(O)[C@H]2O)C(O)[C@@H](O)[C@H]1O` (some centres unmarked), at intestinal lactase (unweaned rats aged 12 to 35 days, 4 mg oral, urine of 6 hours, lactase evaluated postmortem in intestinal mucous membrane), the “linear correlation coefficient (r) between excretion of xylose in urine and intestinal lactase activity” value is listed as 0.96. Besides, the “dose dependence of excretion of xylose in urine” value at intestinal lactase (unweaned rats, oral doses from 2 to 32 mg in 0.3 ml of water) is recorded as “increases with the increase of the amount of 4-galactosyl-xylose administered”. For the same molecule, the “gastrointestinal discomfort or disorders” value in series [1] (8 adult volunteers with lactose tolerance, 0.25 g oral) is on record as “did not cause any gastrointestinal discomfort or disorder”; in series [1] (individual 1 with lactose tolerance, 1 g oral), “did not cause any gastrointestinal discomfort or disorders”; in series [1] (individual 12 with lactose intolerance and two individuals with lactose tolerance, 3 g oral), “did not result in any gastrointestinal discomfort or disorder”; in series [1] (individual 13, allergy to milk components, 0.25 g oral), “did not cause any gastrointestinal discomfort or disorder”; in series [1] (individuals 1 and 2 with lactose tolerance, 0.25 g, 0.5 g and 3 g oral), “did not cause any gastrointestinal discomfort or any disorder”; in series [1] (individuals 12 and 5 with lactose intolerance, 0.25 g oral), “did not cause any gastrointestinal discomfort or disorders”.
